Assay results as given in patent publication US8653304B2, “2,3-dihydro-1H-indene-2-yl urea derivative and pharmaceutical application of same” (Toray Industries, Inc., priority 2009, dated 2014).

Key:
[1] = test system: hyperalgesia in Bennett model; experiment: Hyperalgesia in neuropathic pain model (Bennett model), plantar test; type: in vivo; settings: SD rat, Bennett model day 14, oral 100 mg/kg, 90 minutes after administration; FIG. 2
Text: The action of Compound (I) on hyperalgesia in pain models was studied. As the pain models, models partially modified from an inflammatory pain model (a carrageenin paw edema pain model) and neuropathic pain models (Bennett model and Chung model) described in documents (Anesth. Analg., 2009, Vol. 108, pp. 1680-1687; Pain, 1988, Vol. 33, pp. 87-107; and Pain, 1992, Vol. 50, pp. 355-363) were used.
The Bennett model was produced by lightly ligating the sciatic nerve in the left thigh of each Crl:CD (SD) rat (male, 6-week old, Charles River Laboratories Japan, Inc.) at 4 points with chromic catgut (4-0). Fourteen days after the Bennett model was produced, each test compound was orally administered, and plantar test was performed 90 minutes after the administration. The plantar test was carried out by measuring the pain threshold (sec) of the left footpad (model foot) using a plantar thermal stimulation device (Plantar test 7370, Ugo Basile) wherein the thermal stimulus intensity was set to 60. Each test compound was suspended in 0.5 w/v % methylcellulose (Wako Pure Chemical Industries, Ltd.) and the obtained solution was orally administered. Compound 46b described in the Examples was administered at a dose of 100 mg/kg, and gabapentin (Toronto Research Chemicals), which is an anticonvulsant, was administered as a comparative control agent at a dose of 100 mg/kg.

[2] = test system: skin swelling response in type I allergic dermatitis model; experiment: Skin swelling response in type I allergic dermatitis model; type: in vivo; settings: BALB/c mouse, 20 μL of 0.5 w/v % solution applied to auricle 1 hour before induction
Text: The action of Compound (I) on skin swelling response in mouse allergic dermatitis models was studied. As the allergic dermatitis models, models partially modified from a type I allergic dermatitis model and a type IV allergic dermatitis model described in documents (Inflamm. Res., 1998, Vol. 47, pp. 506-511 and Int. Arch. Allergy. Appl. Immunol., 1990, Vol. 92, pp. 356-360) were used.
To each BALB/c mouse (female, 7-week old, Charles River Laboratories Japan, Inc.), mouse IgE anti-DNP antibody (0.05 mg/body, […] CORPORATION) was intravenously administered to passively sensitize the mouse. Twenty four hours after the sensitization, 20 μL of 0.38% DNFB (SIGMA) dissolved in acetone:olive oil (4:1) was applied to the auricle of the mouse to induce inflammation. From after the induction to 24 hours, the thickness of the auricle was measured with time using a Digimatic Indicator (Mitutoyo). Each test compound was dissolved in ethanol, and 20 μL of 0.5 w/v % solution was applied to the auricle at 1 hour before the induction.
The swelling ratio of the auricle was calculated according to the following equation. […] Auricular Swelling Ratio(%)=(A−B)/B×100

[3] = Metabolic stability in human CYP (human liver microsomes); type: in vitro ADME; settings: human liver microsomes 0.5 mg/mL, NADPH, 37° C., compound 2 μM
Description: Each test compound was mixed at a concentration of 2 μM with a phosphate buffer solution containing Human liver microsomes (Xenotech) in an amount of 0.5 mg/mL. Thereafter, NADPH was added thereto, and the obtained mixture was allowed to react at 37° C. for up to 30 minutes. The reaction was terminated by adding acetonitrile, and then the resultant was centrifuged for 10 minutes at 4° C. to collect a supernatant. The supernatant was pretreated by methanol extraction method, and the concentration of the compound was analyzed by LC/MS/MS (ESI positive mode). The compound remaining rate was calculated from the obtained concentration of the compound.

[4] = test system: colonic disorders in TNBS-induced colitis model; experiment: Colonic disorders in TNBS-induced colitis model; type: in vivo; settings: Wistar rat, oral 3 mg/kg once on TNBS day then twice a day for 4 days, colon 5 days after TNBS
Text: The action of Compound (I) on colonic disorders in inflammatory bowel disease models was studied. As the inflammatory bowel disease models, models partially modified from a TNBS-induced colitis model and a DSS-induced chronic colitis model described in documents (Gastroenterology, 1989, Vol. 96, pp. 29-36 and Am. J. Physiol. Gastrointest. Liver Physiol., 2004, Vol. 287, pp. G115-124) were used.
To each Slc:Wistar rat (male, 12-week old, Japan SLC, Inc.), TNBS (Wako Pure Chemical Industries, Ltd.) dissolved in ethanol was rectally administered under anesthesia, and the TNBS solution was held in the rectum for 1 hour to produce the colitis model. These rats had been fasted from 2 days before the TNBS administration to the day of the TNBS administration. Five days after the TNBS administration, the colon was isolated from the each rat, and the macroscopic damage score (which is a total of adhesion score, diarrhea score and ulcer score) was recorded as an index of damage in the colon. The macroscopic damage score was calculated based on the scores of Dubigeon et al. (Eur. J. Pharmacol., 2001, Vol. 431, pp. 103-110) and the scores of Venkova et al. (J. Pharmacol. Exp. Ther., 2004, Vol. 308, pp. 206-213). […]

HepG2 cells = experiment: Ability to induce drug-induced phospholipidosis (HepG2, HCS Lipid TOX Green); type: cell-based, human; settings: 48 hours
Description: Whether an ability to induce phospholipidosis by Compound (I) was observed or not was studied. The evaluation of Compound 46b described in the Examples was carried out by a method partially modified from the method described in Experimental and Toxicologic Pathology (2007, Vol. 58, pp. 375-382).
Each test compound and HCS Lipid TOX Green Phospholipidosis Detection Regent (Invitrogen), which is a phospholipid staining solution, were mixed with HepG2 cells, which are a cell line derived from human hepatoma, and the cells were cultured in the presence of 5% CO2 at 37° C. for 48 hours. The culture supernatant after the culturing was removed, and Hoechest 33258 (Invitrogen), which is a nucleic acid staining solution, was added, followed by allowing the resulting mixture to react in the dark at room temperature for 20 minutes. The resultant was washed with PBS solution. Then the fluorescence intensity was measured with a microplate analyzer (Fusion-α, Packard), and FLA (a relative value when taking amiodarone hydrochloride (10 μM) as 1, the amiodarone hydrochloride being a positive control substance) was calculated according to the following equations. The case where FLA was less than 1 was judged as negative, and the case where FLA was not less than 1 was judged as positive. […]

COc1c(NC(=O)N[C@@H]2Cc3ccccc3[C@@H]2O)cc(C(C)(C)C)cc1[C@@H](O)C(F)(F)F [Compound 46b, 1-(5-tert-butyl-2-methoxy-3-((R)-2,2,2-trifluoro-1-hydroxyethyl)phenyl)-3-((1S,2R)-1-hydroxy-2,3-dihydro-1H-indene-2-yl)urea]
pain threshold (sec), plantar test, compared to solvent-administered group [1]: significantly elevated
suppression ratio on immediate response (auricular swelling AUC 0-4 hours) [2]: 94.4%
suppression ratio on late response (auricular swelling AUC 5-10 hours) [2]: 93.1%
microsomal CLint at 2 μM [3]: 94 µL/min/mg
macroscopic damage score [4]: 3.3±0.7
FLA value (relative to amiodarone hydrochloride 10 μM as 1) (HepG2 cells; concentration up to 10 μM): less than 1
phospholipidosis judgement (HepG2 cells; up to 10 μM, FLA less than 1 = negative): negative
